Data reported in PMC7696938, “Cinnamides Target Leishmania amazonensis Arginase Selectively” (Molecules, 2020).
Values joined by “and” are separate entries in the source; they are usually repeats but may differ in a detail not shown here. Equal values may be shown once. Read-outs that look alike come from different tables or passages of the source.

Assays:
bovine arginase (B-ARG) = biological target: bovine arginase (B-ARG); set-up: method as in PMID 27690022; conditions: cited from earlier work
human arginase (h-ARG) = biological target: human arginase (h-ARG); set-up: method as in PMID 27690022; conditions: cited from earlier work
[1] = system: L. amazonensis promastigotes; assay: Promastigote growth inhibition (MTT); assay type: cell-based; conditions: Leishmania amazonensis, 78 h
Method: Promastigote forms of the strain MHO were inoculated initially in the concentration of 5 × 10^5 parasites/mL in M199 medium (Life Technologie, Carlsbad, CA, USA), pH 7.4, supplemented with 10% of fetal bovine serum, (50 µg/mL) streptomycin, and (100 U) penicillin at 24 °C. Cells were grown until they reached the stationary phase. After this, 998 μL of the culture at 5.0 × 10^5 cells/mL was incubated with 2 μL of the inhibitors (50 to 0.0005 mM) dissolved in DMSO to obtain final concentrations of 100 to 0.001 μM. Amphotericin B was used as a control of the cell growth inhibition, in a concentration varying from 60 to 0.0006 μM dissolved in DMSO. […] After this inhibition period, the surviving cells were washed twice with HBSS (Gibco), centrifuged at 2000× g for 10 min, and supernatant was removed. To verify the parasite viability, over the pellet of cells about 1000 µL of M199 medium content was added, with 5 mg/mL of MTT (3-(4,5-dimethylthiazol-2-yl)-2, 5-diphenyltetrazolium bromide, a tetrazole) (Sigma-Aldrich, St. Louis, MO, USA). Surviving parasites were exposed to MTT during 12 h at 34 °C in a CO2 chamber. After this period, the cells were centrifuged for 10 min at 2000× g and the supernatant was removed. Formazan crystals that were formed in the cells were dissolved with DMSO, the absorbance was read using an Epoch 2 Microplate Spectrophotometer at 600 nm.

[2] = system: Leishmania amazonensis recombinant arginase (L-ARG); assay: Arginase inhibition test, recombinant L-ARG (urea, Berthelot method); assay type: biochemical; set-up: Emax: dose or concentration left out as unconfirmed; conditions: for Selective Index: L-ARG over B-ARG (bovine IC50 vs L. amazonensis IC50)
Method: (§1) Recombinant L-ARG was expressed and purified as previously described. Briefly, Escherichia coli, containing arginase gene cloned in plasmid DNA, was grown in SOB (Super Optimal Broth) medium at 37 °C until it reached absorbance 0.6 at 600 nm. Then the recombinant L-ARG expression was induced with a final concentration of IPTG (isopropyl β-D-1-thiogalactopyranoside) 1 mM and MnSO4 10 mM for 3 h. The cells were harvested and lysed in 1 mL of buffer A (MOPS 100 mM, pH 7,2, NaCl 500 mM) containing PMSF (phenylmethanesulfonyl fluoride) 1 mM and 10% of CelLytic™ B. After lysis, the homogenate was centrifuged at 12,000× g for 10 min. Arginase in the supernatant was purified as previously described.
(§2) A stock solution (70 mM) was prepared in DMSO and stored at −20 °C for each compound just before the experiment. The inhibitory test was performed with 50 mM of L-arginine (pH 9.5), 50 mM CHES buffer (pH 9.5), and enzyme at 5 nM. The sample was incubated in a water bath at 37 °C for 15 min. Urea was quantified according to the Berthelot method, using commercial reagents. Briefly, the catalytic activity of the arginase reaction was stopped by transferring 2 μL of the reaction mixture into 150 μL of reagent I (20 mM phosphate buffer, pH 7, containing 60 mM Salicylate, 1 mM sodium nitroprusside, and >500 IU of urease). This mixture was incubated at 37 °C for 5 min. Next, 150 μL of reagent II (sodium hypochlorite 10 mM and NaOH 150 mM) was added, and the samples were incubated at 37 °C for 5 min. Measurement was taken at 600 nm using an Epoch 2 microplate reader (BioTek Instruments, Inc.). Two independent experiments were performed in triplicate until a coefficient of non-linear regression R^2 ≥ 0.95 was obtained. The sigmoidal model (log IC50) was used to determine IC50 and maximum effect (Emax) in GraphPad-Prism 6.01 software for Windows (San Diego, CA, USA).

[3] = biological target: T1, Leishmania amazonensis recombinant arginase (L-ARG) (Leishmania amazonensis, UniProt O96394); assay: as above; assay type: biochemical; set-up: Emax: dose or concentration left out as unconfirmed
Method: as §1, §2

[4] = biological target: T1, Leishmania amazonensis recombinant arginase (L-ARG); assay: Determination of Ki, Kis and mechanism of inhibition of L-ARG (Dixon and Cornish-Bowden plots); assay type: biochemical; conditions: for Mode of Inhibition: L-ARG; for Ki / Kis: L-arginine 25, 50, 100 mM, pH 9.5
Method: All reactions were performed in 50 mM CHES buffer, pH 9.5, containing variable concentrations of the substrate L-arginine (25, 50, and 100 mM) at pH 9.5. Inhibitors were tested at three different concentrations close to the IC50. All reactions were performed in triplicate in two independent experiments. Urea was quantified according to the Berthelot method using commercial reagents as previously described. The constant Ki was determined for competitive and mixed inhibitors, and Ki’ was determined uncompetitive and mixed using a Dixon and Cornish–Bowden plots. For non-competitive inhibitors, Ki and K’i values were the same, and y = 0 was determined to obtain that value.

[5] = biological target: T1, Leishmania amazonensis recombinant arginase (L-ARG); set-up: method as in PMID 30216691; conditions: Table 2, unit inferred; read-out: IC50 inhibition of arginase, L. amazonensis; cited from earlier work
[6] = Table 2, unit inferred, read-out: IC50 inhibition of arginase, Bovine
[7] = 50 mM L-arginine, pH 9.5, 37 °C, 15 min, read-out: IC50 (half inhibitory activity), L-ARG
[8] = Table 2, unit inferred, read-out: IC50 inhibition of arginase, L. amazonensis
[9] = read-out: Emax (maximal inhibitory activity)

SMILES | IC50 [1] | potency against L-ARG relative to human arginase ([2]; L-ARG IC50 vs human arginase IC50) | Selective Index [2] | IC50 [3, 7] | IC50 [3, 8] | Emax at 100 µM [3, 9] | Mode of Inhibition [4] | Ki [4] | Kis [4] | Emax [3, 9] | IC50 (bovine arginase (B-ARG); [6]) | mode of inhibition of bovine arginase (bovine arginase (B-ARG)) | IC50 (human arginase (h-ARG)) | IC50 [5] | IC50 (bovine arginase (B-ARG); read-out: IC50, bovine arginase)
O=C(/C=C/c1ccc(O)c(O)c1)NCCc1ccccc1 [CAPA, caffeic acid phenethyl amide] | 82.6 µM | 9 fold | 1 | 6.9 ± 0.7 µM | 6.9 ± 0.7 µM | 79 ± 1% | Competitive | 3.9 ± 1 µM | – | – | 6.9 ± 1.3 µM | competitive inhibition | 60.3 µM and 60 µM | – | –
O=C(/C=C/c1ccc(O)c(O)c1)O[C@@H]1C[C@](O)(C(=O)O)C[C@@H](O)[C@H]1O [Chlorogenic acid, reference compound] | – | – | 1.3 | – | – | – | – | – | – | – | 10.6 ± 1.6 µM | – | – | – | ~10 µM
O=C(/C=C/c1ccc(O)c(O)c1)NCCc1ccc(O)cc1 [Compound 6] | – | – | 4 | 5.6 ± 0.4 µM | 5.6 ± 0.4 µM | 82 ± 2% | Competitive | 4.4 ± 1.1 µM | – | – | 22.1 ± 1.6 µM | – | – | – | –
O=C(/C=C/c1ccc(O)c(O)c1)NCCc1ccc(O)c(O)c1 [Compound 11] | – | – | 64 | 1.8 ± 0.1 µM | 1.8 ± 0.1 µM | 81 ± 2% | Uncompetitive | – | 2.5 ± 0.2 µM | – | 115 ± 1.3 µM | – | – | – | –
COc1cc(/C=C/C(=O)NCCc2ccc(O)c(O)c2)cc(OC)c1OC [Compound 14] | – | – | 81 | 2.4 ± 0.9 µM | 2.4 ± 0.9 µM | 81 ± 2% | Competitive | 1.2 ± 0.3 µM | – | – | 193.6 ± 1.4 µM | – | – | – | –
O=C(/C=C/c1ccccc1)NCCc1ccc(O)c(O)c1 [Compound 15] | – | – | 30 | – | 1.3 ± 0.1 µM | – | Mixed | 1.4 ± 0.2 µM | 5 ± 1 µM | 80 ± 1% | 39.3 ± 1.4 µM | – | – | – | –
COC(=O)C(CS)NC(=O)/C=C/c1ccc(O)c(O)c1 (centres unmarked) [Compound 19] | – | – | 4 | 9 ± 1 µM | 9 ± 1 µM | 90 ± 3% | Mixed | 6.6 ± 0.3 µM | 28 ± 4 µM | – | 37 ± 1.3 µM | – | – | – | –

Second part, led by results:

IC50 [1] | potency against L-ARG relative to human arginase ([2]; L-ARG IC50 vs human arginase IC50) | Selective Index [2] | IC50 [3, 7] | IC50 [3, 8] | Emax at 100 µM [3, 9] | Mode of Inhibition [4] | Ki [4] | Kis [4] | Emax [3, 9] | SMILES | IC50 (bovine arginase (B-ARG); [6]) | mode of inhibition of bovine arginase (bovine arginase (B-ARG)) | IC50 (human arginase (h-ARG)) | IC50 [5] | IC50 (bovine arginase (B-ARG); read-out: IC50, bovine arginase)
– | – | 58 | – | – | – | – | – | – | – | O=C(O)/C=C/c1ccc(O)c(O)c1 [Caffeic acid, reference compound] | 86.7 ± 8 µM | – | – | 1.5 ± 0.3 µM | –
– | – | 31 | 6.5 ± 1.4 µM | 6.5 ± 1.4 µM | 75 ± 2% | Noncompetitive | 9.6 ± 0.7 µM | 9.6 ± 0.7 µM | – | COc1cc(/C=C/C(=O)NCCc2ccc(O)c(O)c2)ccc1O [Compound 12] | 198.7 ± 1.4 µM | – | – | – | –
– | – | 68 | 2.5 ± 0.2 µM | 2.5 ± 0.2 µM | 82 ± 1% | Competitive | 1.6 ± 0.2 µM | – | – | O=C(/C=C/c1ccc(O)cc1)NCCc1ccc(O)c(O)c1 [Compound 13] | 170.4 ± 1.7 µM | – | – | – | –
– | – | 10 | 17.8 µM and 18 µM | 18 ± 3 µM | 68 ± 2% | Competitive | 11.4 ± 0.7 µM | – | – | O=C(NCCc1ccc(O)cc1)c1ccc(O)c(O)c1 [Compound 17] | 175.3 ± 1.5 µM | – | – | – | –
– | – | 10 | 4 ± 1 µM | 4 ± 1 µM | 89 ± 3% | Mixed | 3.9 ± 0.4 µM | 27 ± 8 µM | – | COC(=O)C(Cc1ccc(O)c(O)c1)NC(=O)/C=C/c1ccc(O)c(O)c1 (centres unmarked) [Compound 18] | 41.9 ± 1.3 µM | – | – | – | –
